Measurements: patent US20170196859A1, “PHARMACEUTICAL COMPOSITION COMPRISING PYRAZINE CARBOXAMIDE COMPOUND AS ACTIVE INGREDIENT” (Astellas Pharma Inc., priority 2014, published 2017)

Columns and labels:
Format in all cases: cell-based
[1] = test system: human mantle cell lymphoma cell line Rec-1 cells; experiment: Proliferation inhibition, Rec-1 cells (CellTiter-Glo); conditions: Rec1, 72 h, 3 days culture
Method: (§1) Rec-1 is a cell line originated from human mantle cell lymphoma, a kind of B-cell malignant neoplasm, and the BTK expression and phosphorylation have been confirmed (Cell Oncol. 2011; 34:141-153). The human mantle cell lymphoma cell line Rec-1 cells (American Type Culture Collection, CRL-3004) cultured in RPMI1640 medium (Sigma) containing 10% bovine serum were seeded into 96 well plates. On the next day, DMSO solutions of the test compound B at final concentrations from 1 nM to 10 μM or only DMSO (DMSO group) were added thereto to culture the cells at 37° C. in 5% CO2 for 3 days. Thereafter, the cell number was measured using a cell counting reagent (CellTiter-Glo (registered trademark) Luminescent Cell Viability Assay (Promega)). The cell proliferation inhibition rate was calculated as the measured value in the DMSO group set as 0% inhibition and the measured value in the well only with the medium on which the cells have not been seeded set as 100% inhibition.

[2] = test system: human lymphoblastic leukemia cell line MOLT-4 cells; experiment: Proliferation inhibition, MOLT-4 cells (CellTiter-Glo); conditions: MOLT-4, 96 h, 4 days culture
Method: MOLT-4 is a cell lines originated from human lymphoblastic leukemia and the ITK expression has been confirmed (Mol. Pharmacol. 2012; 82:938-947). The human lymphoblastic leukemia cell line MOLT-4 cells (European Collection of Cell Cultures, 85011413) cultured in RPMI1640 medium (Sigma) containing 10% bovine serum were inoculated into 96 well plates. On the same day, DMSO solutions of the test compound B at final concentrations from 1 nM to 10 μM or only DMSO (DMSO group) were added thereto to culture the cells at 37° C. in 5% CO2 for 4 days. Thereafter, the cell number was measured using a cell counting reagent (CellTiter-Glo (registered trademark) Luminescent Cell Viability Assay (Promega)). The cell proliferation inhibition rate was calculated as the measured value in the DMSO group set as 0% inhibition and the measured value in the well only with the medium on which the cells have not been seeded set as 100% inhibition.

[3] = test system: human acute myeloid leukemia cell line KG-1 cells; experiment: Proliferation inhibition, KG-1 cells (CellTiter-Glo); conditions: KG-1, 72 h, 3 days culture
Method: as §1, with “KG-1” for “Rec-1”, “acute myeloid leukemia” for “mantle cell lymphoma, a kind of B-cell malignant neoplasm,”, “has” for “and phosphorylation have”, “(J. Immunol. 1994; 152(2):557-565).” for “(Cell Oncol. 2011; 34:141-153).”, “acute myeloid leukemia” for “mantle cell lymphoma”, “CCL-246)” for “CRL-3004)”

[4] = test system: human anaplastic large cell lymphoma cell line SU-DHL-1 cells; experiment: Proliferation inhibition, SU-DHL-1 cells (CellTiter-Glo); conditions: SU-DHL-1, 96 h, 4 days culture
Method: SU-DHL-1 is a cell line originated from human anaplastic large cell lymphoma and the activation of JAK 3 has been confirmed (Leukemia. 2014; 28:941-944). The human anaplastic large cell lymphoma cell line SU-DHL-1 cells (American Type Culture Collection, CRL-2955) cultured in RPMI1640 medium (Sigma) containing 10% bovine serum were seeded into 96 well plates. On the same day, DMSO solutions of the test compound B at a final concentrations from 1 nM to 10 μM or only DMSO (DMSO group) was added thereto to culture the cells at 37° C. in 5% CO2 for 4 days. Thereafter, the cell number was measured using a cell counting reagent (CellTiter-Glo (registered trademark) Luminescent Cell Viability Assay (Promega)). The cell proliferation inhibition rate was calculated as the measured value in the DMSO group set as 0% inhibition and the measured value in the well only with the medium on which the cells have not been seeded set as 100% inhibition.

[5] = test system: human histiocytic lymphoma cell line U-937 cells; experiment: Proliferation inhibition, U-937 cells (CellTiter-Glo); conditions: U-937, 72 h, 3 days culture
Method: U-937 is a cell line originated from human histiocytic lymphoma and the BTK expression has been confirmed (J. Immunol. 1994; 152(2):557-565). The human histiocytic lymphoma cell line U-937 cells (Sumitomo Dainippon Pharma Co., Ltd.) cultured in RPMI1640 medium (Sigma) containing 10% bovine serum were seeded into 96 well plates. On the same day, DMSO solutions of the test compound B at a final concentrations from 1 nM to 10 μM or only DMSO (DMSO group) were added thereto to culture the cells at 37° C. in 5% CO2 for 3 days. Thereafter, the cell number was measured using a cell counting reagent (CellTiter-Glo (registered trademark) Luminescent Cell Viability Assay (Promega)). The cell proliferation inhibition rate was calculated as the measured value in the DMSO group set as 0% inhibition and the measured value in the well only with the medium on which the cells have not been seeded set as 100% inhibition.

[6] = test system: human anaplastic large cell lymphoma cell line KARPAS-299 cells; experiment: Proliferation inhibition, KARPAS-299 cells (CellTiter-Glo); conditions: KARPAS-299, 72 h, 3 days culture
Method: KARPAS-299 is a cell line originated from human anaplastic large cell lymphoma and the activation of JAK 3 has been confirmed (Oncogene. 2002; 21:1038-1047). The human anaplastic large cell lymphoma cell line KARPAS-299 cells (DSMZ, ACC31) cultured in RPMI1640 medium (Sigma) containing a 10% bovine serum were seeded into 96 well plates. On the same day, DMSO solution of the test compound B at a final concentrations from 1 nM to 10 μM or only DMSO (DMSO group) were added thereto to culture the cells at 37° C. in 5% CO2 for 3 days. Thereafter, the cell number was measured using a cell counting reagent (CellTiter-Glo (registered trademark) Luminescent Cell Viability Assay (Promega)). The cell proliferation inhibition rate was calculated as the measured value in the DMSO group set as 0% inhibition and the measured value in the well only with the medium on which the cells have not been seeded set as 100% inhibition.

IC50 [1]: 68 nM
IC50 [2]: 410 nM
IC50 [3]: 38 nM
IC50 [4]: 120 nM
IC50 [5]: 63 nM
IC50 [6]: 250 nM
SMILES: C=CC(=O)N1CC[C@@H](Oc2nc(Nc3ccc(N4CCC(N5CCN(C)CC5)CC4)cc3)c(C(N)=O)nc2CC)C1 [test compound B, 5-{[(3R)-1-acryloylpyrrolidin-3-yl]oxy}-6-ethyl-3-({4-[4-(4-methylpiperazin-1-yl)piperidin-1-yl]phenyl}amino)pyrazine-2-carboxamide monomethanesulfonate]
